# Values of other authors, collected in patent publication US20230357798A1, “GENE CORRECTION FOR X-CGD IN HEMATOPOIETIC STEM AND PROGENITOR CELLS” (THE BOARD OF TRUSTEES OF THE LELAND STANFORD JUNIOR …, priority 2020, published 2023).
# Like-named read-outs stand apart in the source and are kept apart here.
# Key:
# CD34^+ HSPCs [1] = settings: for cell viability relative to edited controls: single agent, CD34+ HSPCs
# CD34^+ HSPCs [2] = tested on: CD34^+ HSPCs
Compound,HSPC viability (CD34^+ HSPCs [1]; combined with Trichostatin A and NSC 15520) [%],cell viability relative to edited controls (CD34^+ HSPCs [1]) [%],"enhancement of HDR (CD34^+ HSPCs [2]; combined with Trichostatin A and NSC 15520, CRISPR/Cpf1, ssODN donor) [fold]","enhancement of HDR (CD34^+ HSPCs [2]; single agent, CD34+ HSPCs) [fold]"
O=c1cc(N2CCOCC2)oc2c1ccc1ccccc12 [NU7026],65,~80,2.6,1.7
O=c1cc(N2CCOCC2)oc2c(-c3cccc4c3sc3ccccc34)cccc12 [NU7441],,~65,,2
